# Source: PubChem BioAssay (NCI)
# Values joined by “and” are separate entries in the source; they are usually repeats but may differ in a detail not shown here. Equal entries are not always repeated.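 Briefly, cells in 96-well plates were exposed to five compound concentrations for 48 h, and endpoints were estimated by linear interpolation. The concentration for 50% growth inhibition is given as GI50. At the TGI there is no net growth.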
# Key:
# Test in all cases: NCI anticancer screen, dose series, 48 h
# KM12 colon = test system: KM12 colon
# M14 melanoma = test system: M14 melanoma
# NCI/ADR-RES ovarian = test system: NCI/ADR-RES ovarian
# OVCAR-5 ovarian = test system: OVCAR-5 ovarian
# OVCAR-8 ovarian = test system: OVCAR-8 ovarian
# SK-MEL-2 melanoma = test system: SK-MEL-2 melanoma
# SK-MEL-5 melanoma = test system: SK-MEL-5 melanoma
# SNB-75 CNS = test system: SNB-75 CNS
# T-47D breast = test system: T-47D breast
# U251 CNS = test system: U251 CNS
Structure (SMILES),GI50 (KM12 colon),TGI (KM12 colon),GI50 (M14 melanoma),TGI (M14 melanoma),GI50 (NCI/ADR-RES ovarian),TGI (NCI/ADR-RES ovarian),GI50 (OVCAR-5 ovarian),TGI (OVCAR-5 ovarian),GI50 (OVCAR-8 ovarian),TGI (OVCAR-8 ovarian),GI50 (SK-MEL-2 melanoma),TGI (SK-MEL-2 melanoma),GI50 (SK-MEL-5 melanoma),TGI (SK-MEL-5 melanoma),GI50 (SNB-75 CNS),TGI (SNB-75 CNS),GI50 (T-47D breast),TGI (T-47D breast),GI50 (U251 CNS),TGI (U251 CNS)
CCOC(=O)c1ccc(Nc2sc(C(=O)c3cccc([N+](=O)[O-])c3)c(N)c2C#N)cc1,0.0678 µM,6.43 µM,0.213 µM,23.9 µM,0.0521 µM,25.7 µM,2.25 µM,29.6 µM,1.4 µM,10.4 µM,0.403 µM,24.4 µM,0.156 µM,12.2 µM,0.116 µM,0.65 µM,0.141 µM,> 68.5 µM,0.0607 µM,3.86 µM
O=C(NNc1ccccc1)OCc1ccccc1,3.92 µM,> 100 µM,2.81 µM,60.6 µM,21.1 µM,> 100 µM,8.05 µM,> 100 µM,11.2 µM,> 100 µM,15.7 µM,> 100 µM,16.8 µM,> 100 µM,> 100 µM,> 100 µM,9.86 µM,> 100 µM,70.6 µM,> 100 µM
O=C1OC(C2=CC(=O)c3ccccc3C2=O)C(Cl)=C1Cl (stereo not given),–,> 100 µM,–,> 100 µM,–,> 100 µM,–,> 100 µM,–,29.8 µM,–,35.4 µM,–,> 100 µM,–,> 100 µM,–,83.7 µM,–,86 µM
CN1CCN(Cc2ccc(NC(=O)c3nc4ccc5[nH]ncc5c4c4c3CCC4)cc2C(F)(F)F)CC1,0.957 µM,1.91 µM,0.934 µM,1.76 µM,0.931 µM,2.14 µM,0.994 µM,2.41 µM,1.05 µM,2.22 µM,1.16 µM,2.49 µM,7.47 µM,14.1 µM,4.81 µM,10.8 µM,1.07 µM,2.84 µM,0.875 µM,1.6 µM
CCCCCCCCCCCC[n+]1ccccc1,1.12 µM,2.87 µM,0.835 µM,2.82 µM,14.9 µM,50.7 µM,1.57 µM,7.67 µM,1.03 µM,5.28 µM,1.44 µM,3.73 µM,1.06 µM,2.26 µM,1.16 µM,4.05 µM,0.936 µM,11.2 µM,0.997 µM,2.44 µM
CCN(C(=O)CCl)C(C)(C)C(SSSC(c1ccc(Cl)cc1)C(C)(C)N(CC)C(=O)CCl)c1ccc(Cl)cc1 (stereo not given),10.3 µM,23 µM,1.91 µM,3.65 µM,8.31 µM,24 µM,13.8 µM,27.9 µM,10.9 µM,24.1 µM,6.14 µM,18.7 µM,6.92 µM,20.2 µM,13.3 µM,29.5 µM,5.3 µM,26.3 µM,4.72 µM,17.7 µM
O=C1c2ccccc2-c2n[nH]c3cccc1c23,3.1 µM,72 µM and > 100 µM,5.03 µM,> 100 µM,30.5 µM,59.2 µM and > 100 µM,–,85.4 µM and > 100 µM,–,> 100 µM,22.5 µM,> 100 µM,25.6 µM,37.5 µM and > 94.6 µM,–,97.6 µM and > 100 µM,45.1 µM,> 100 µM,16.6 µM,> 100 µM
S=C=NCc1ccccc1,–,15.8 µM,–,5.81 µM,–,> 32 µM,–,29.8 µM,–,9.31 µM,–,> 59 µM,–,7.76 µM,–,17.1 µM,–,33.3 µM,–,12.2 µM
C=CC(=O)N1CCC([C@@H]2CCNc3c(C(N)=O)c(-c4ccc(Oc5ccccc5)cc4)nn32)CC1,31.5 µM,98.9 µM,14.4 µM,31.9 µM,17.8 µM,> 96.6 µM,22.2 µM,> 100 µM,13.8 µM,74.2 µM,18.2 µM,40 µM,14.5 µM,28.7 µM,5.39 µM,30.6 µM,3.49 µM,> 87.1 µM,17.6 µM,> 77.1 µM
O=C(Nc1ccccc1)NS(=O)(=O)c1ccc(N2N=C3c4ccccc4CC3C2c2ccccn2)cc1 (stereo not given),24.8 µM,88.7 µM,24.9 µM,51.4 µM,64.4 µM,> 100 µM,26.8 µM,97.9 µM,27 µM,92.3 µM,35.6 µM,> 100 µM,23.6 µM,47 µM,> 100 µM,> 100 µM,93 µM,> 100 µM,31.9 µM,> 100 µM
CC1(C)CC(OCCCC[P+](c2ccccc2)(c2ccccc2)c2ccccc2)CC(C)(C)N1O,0.284 µM,0.966 µM,0.433 µM,1.9 µM,5.56 µM,21.5 µM,0.481 µM,8.42 µM,0.333 µM,2.61 µM,0.272 µM,0.641 µM,0.163 µM,0.358 µM,0.331 µM,3.61 µM,0.143 µM,1.23 µM,0.247 µM,1.54 µM
C[C@]12CCC3c4ccc(O)cc4CCC3C1Cc1ccc(O)cc12 (stereo not given in full),3.4 µM,20.6 µM,3.8 µM,13.6 µM,2.35 µM,6.74 µM,14.5 µM,27.6 µM,15.8 µM,33.8 µM,11 µM,26.3 µM,4.85 µM,16.8 µM,6.35 µM,31.2 µM,13.1 µM,30.9 µM,5.24 µM,17.4 µM
COc1ccc2c(c1)sc1nc(-c3ccccc3)c(-c3ccc(O)c(OC)c3)n12,4.81 µM,> 100 µM,4.34 µM,> 100 µM,4.55 µM,> 100 µM,33.7 µM,> 100 µM,41.2 µM,> 100 µM,21.3 µM,> 100 µM,3.64 µM,> 100 µM,11.1 µM,> 100 µM,83.1 µM,> 100 µM,5.28 µM,> 100 µM
NC(CSc1nc2ccccn2c1[N+](=O)[O-])C(=O)O (stereo not given),–,> 100 µM,–,> 100 µM,–,> 100 µM,–,> 100 µM,–,> 100 µM,–,> 100 µM,–,> 100 µM,–,> 100 µM,–,> 100 µM,–,> 100 µM
COC(=O)c1ccc2c(c1)C(=O)c1c-2n(CCCN)c(=O)c2cc([N+](=O)[O-])ccc12,0.0675 µM,0.94 µM,< 0.0222 µM,0.46 µM,< 0.029 µM,0.682 µM,0.139 µM,0.661 µM,< 0.0344 µM,0.864 µM,–,0.519 µM,< 0.0405 µM,0.8 µM,< 0.0348 µM,–,< 0.0173 µM,1.34 µM,< 0.0127 µM,0.368 µM
COc1cc(Cn2ccc3c2-c2oncc2CC3)cc(OC)c1,2.02 µM,28.5 µM,2.39 µM,9.45 µM,1.95 µM,7.24 µM,10.1 µM,> 100 µM,4.81 µM,46.7 µM,8.29 µM,> 100 µM,2.75 µM,10.4 µM,1.9 µM,7.48 µM,3.69 µM,60.2 µM,4.43 µM,69.3 µM
